Measurements: US9212130B2, “Heterocyclic derivative and pharmaceutical composition comprising the same” (SHIONOGI & CO., LTD., priority 2010, dated 2015)

Experiments:
Solubility test = assay type: physicochemical; conditions: artificial intestinal juice (phosphate buffer) with 1% DMSO, 25 °C, other biorelevant, kinetic from dmso stock, artificial intestinal juice in pH 8.8, 25 degrees Celsius for 16 hours
Protocol: The solubility of a compound was determined under a condition in which 1% DMSO was added. 10 mmol/L compound solution was prepared using DMSO, and then 6 μL of the compound solution was added to 594 μL of artificial intestinal juice in […] (to 250 mL of 0.2 mol/L potassium dihydrogen phosphate reagent solution was added 118 mL of 0.2 mol/L NaOH reagent solution and water to provide a final volume of 1000 mL). After standing at 25 degrees Celsius for 16 hours, the mixed solution was filtrated with suction. The filtrate was diluted twice with methanol/water (1/1) and then a concentration in the filtration was measured with HPLC or LC/MS/MS by the absolute calibration method.

human P2X3 receptor = human P2X3 receptor (Homo sapiens (Human), UniProt P56373); test: Evaluation of human P2X3 receptor inhibitory activity (ATP-induced Fluo-3 fluorescence, FDSS 3000); assay type: cell-based; conditions: C6BU-1 cell transfected with human P2X3 receptor gene
Protocol: The plate was placed in High-Throughput Screening System FDSS 3000 (Hamamatsu Photonics K.K.). […] Five minutes after, 50 nM ATP solution (50 μL) prepared by dilution with the dilution buffer was dispensed through the built-in automatic dispenser, and the measurement of fluorescence intensity was continued for 3 min. For each well, the specific maximum fluorescence intensity was calculated as the ratio of the maximum fluorescence intensity after addition of the ATP solution to the fluorescence intensity at the starting of the measurement. […] FDSS software (Hamamatsu Photonics K.K.) was used for calculation of the specific maximum fluorescence intensity. IC50 was calculated using Microsoft Excel (Microsoft. Corporation) and XLfit (idbs Ltd.)
The aforementioned in mM, μM and nM are each means mmol/L, μmol/L and nmol/L, respectively.
In tables, μM means μmol/L.

Chain of human P2X3 receptor (P56373 whole entry): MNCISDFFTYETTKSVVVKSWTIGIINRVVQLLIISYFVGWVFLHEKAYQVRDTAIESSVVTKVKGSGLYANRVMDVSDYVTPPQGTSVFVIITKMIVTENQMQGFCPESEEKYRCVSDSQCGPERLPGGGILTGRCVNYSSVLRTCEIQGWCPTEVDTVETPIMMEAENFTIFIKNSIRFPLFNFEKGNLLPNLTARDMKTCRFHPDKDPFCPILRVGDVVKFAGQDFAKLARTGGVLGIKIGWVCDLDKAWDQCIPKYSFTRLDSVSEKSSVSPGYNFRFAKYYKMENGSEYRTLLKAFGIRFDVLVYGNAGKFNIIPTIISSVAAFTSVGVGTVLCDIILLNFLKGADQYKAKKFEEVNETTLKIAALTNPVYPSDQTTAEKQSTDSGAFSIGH

SMILES	solubility at 16 h (Solubility test)	IC50 (human P2X3 receptor)
CC(C)Oc1ccc(Nc2nc(=O)c(CCC(=O)O)cn2Cc2ccc(Cl)cc2)cc1Cl [I-117]	> 50 µM	–
Cc1ccc(Oc2ccc(Nc3ncc(N)c(=O)n3Cc3ccc(Cl)cc3)cc2)cn1 [I-292]	–	433 nM
CC(C)Oc1ccc(Nc2ncc(N3CCOCC3)c(=O)n2Cc2ccc(Cl)cc2)cc1F [I-138, 2-(3-fluoro-4-isopropoxyphenylamino)-3-(4-chlorobenzyl)-5-(morpholino)pyrimidine-4(3H)-one]	–	201 nM
CCOC(=O)c1cn(Cc2ccccc2)c(=O)cc1Nc1ccc(OC(C)C)c(Nc2ccc(OC(C)C)c(Cl)c2)c1 [I-061]	–	748 nM
CCOC(=O)c1cn(Cc2ccc(Cl)cc2)c(Nc2ccc3nc(C)sc3c2)nc1=O [I-282]	–	272 nM
CC(C)Oc1ccc(Nc2nc(=O)c(NC(=O)C3CCOCC3)cn2Cc2ccc(Cl)cc2)cc1F [I-238]	–	653 nM
COC(=O)CCNC(=O)c1c(O)[nH]/c(=N\c2ccc(OC(C)C)cc2)n(Cc2ccc(Cl)cc2)c1=O [I-333, 1-(4-chlorobenzyl)-3-(2-methoxycarbonylethyl)carbamoyl-4-hydroxy-6-(4-isopropoxyphenylimino)-2,3-dihydro-pyrimidine-4-one]	–	115 nM
CC(C)Oc1ccc(Nc2nc(=O)c(NC(=O)OC(C)(C)C)cn2Cc2ccc(Cl)cc2)cc1F [I-230]	–	92 nM
COC(=O)[C@H](C)NC(=O)c1cnc(Nc2ccc(OC(C)C)c(F)c2)n(Cc2ccc(Cl)cc2)c1=O [I-164]	–	18 nM
COC(=O)CCCn1c(=O)cc(Nc2ccc3nc(C)sc3c2)n(Cc2ccc(Cl)cc2)c1=O [I-352]	–	24 nM
CC(C)Oc1ccc(Nc2ncc(NC(=O)C(C)(C)C#N)c(=O)n2Cc2ccc(Cl)cc2)cc1F [I-290]	–	23 nM
COC(=O)[C@@H](C)Cn1c(=O)cc(Nc2ccc(OC(C)C)c(C)c2)n(Cc2ccc(Cl)cc2)c1=O [I-212]	–	37 nM
CC(C)Oc1ccc(Nc2cc(=O)n(C[C@H](C)C(=O)O)c(=O)n2Cc2ccc(Cl)cc2)cc1 [I-218]	–	55 nM
COc1ccc(C(=O)Nc2cnc(Nc3ccc(OC(C)C)c(F)c3)n(Cc3ccc(Cl)cc3)c2=O)cn1 [I-274]	–	66 nM
CC(C)Oc1ccc(Nc2nc(=O)c(Cc3ccccc3)cn2Cc2ccc(Cl)cc2)cc1Cl [I-023, 5-benzyl-1-(4-chlorobenzyl)-2-(3-chloro-4-isopropoxyphenylamino)pyrimidine-4(1H)-one]	–	148 nM
CC(C)Oc1ccc(Nc2ncc(NC(=O)C(CO)CO)c(=O)n2Cc2ccc(Cl)cc2)cc1F [I-288]	–	17 nM
CC(=O)OC(C)(C)C(=O)Nc1cnc(Nc2ccc(Oc3ccc(C)nc3)cc2)n(Cc2ccc(Cl)cc2)c1=O [I-293]	–	14 nM
COC(=O)c1cccc(Oc2ccc(Nc3ncc(NC(=O)C4CCOCC4)c(=O)n3Cc3ccc(Cl)cc3)cc2)c1 [I-357]	–	3 nM
CC(C)Oc1ccc(Nc2ncc(C(=O)NNC=O)c(=O)n2Cc2ccc(Cl)cc2)cc1F [I-266]	–	55 nM
CC(C)Oc1ccc(Nc2ncc(NC(=O)CCC(=O)O)c(=O)n2Cc2ccc(Cl)cc2)cc1F [I-231]	–	226 nM
CC(C)Oc1ccc(Nc2ncc(NC(=O)C(=O)O)c(=O)n2Cc2ccc(Cl)cc2)cc1F [I-254]	–	20 nM
CCOC(=O)CCC1CN(Cc2ccc(Cl)cc2)C(Nc2ccc(OC(C)C)c(Cl)c2)=NC1=O (stereo not shown) [I-116]	–	315 nM

SMILES	solubility at 16 h (Solubility test)	IC50 (human P2X3 receptor)
Cc1nc2ccc(Nc3ncc(NC(=O)OCc4ccccc4)c(=O)n3Cc3ccc(Cl)cc3)cc2s1 [I-319]	–	105 nM
CC(C)Oc1ccc(Nc2[nH]c(=O)n(C)c(=O)c2Cc2ccc(Cl)cc2)cc1F [I-001]	–	901 nM
CC(C)Oc1ccc(Nc2ncc(NC(=O)CCO)c(=O)n2Cc2ccc(Cl)cc2)cc1F [I-269]	–	31 nM
Cc1nc2ccc(Nc3nc(=O)c(C(=O)NC4CC4)cn3Cc3ccc(Cl)cc3)cc2s1 [I-309]	–	61 nM
CCc1c(C)nc(Nc2ccc3nc(C)sc3c2)n(Cc2ccc(Cl)cc2)c1=O [I-351]	–	146 nM
CC(C)Oc1ccc(Nc2ncc(Br)c(=O)n2Cc2ccc(Cl)cc2)cc1F [I-257]	–	319 nM
CCOC(=O)/C=C/c1cnc(Nc2ccc(OC(C)C)c(F)c2)n(Cc2ccc(Cl)cc2)c1=O [I-157]	–	589 nM
CC(C)Oc1ccc(/N=c2\[nH]c(O)c(NC(=O)C(C)C)c(=O)n2Cc2ccc(Cl)cc2)cc1 [I-341]	–	681 nM
CC(C)(Cn1c(=O)cc(Nc2cccc(C(F)(F)F)n2)n(Cc2ccc(Cl)cc2)c1=O)C(=O)O [I-114, 1-(4-chlorobenzyl)-3-(2-hydroxycarbonyl-2-methylpropyl)-6-(6-trifluoromethyl-2-pyridylamino)pyrimidine-2,4(1H,3H)-dion]	–	160 nM
COC(=O)[C@@H](C)Cn1c(=O)cc(Nc2ccc(OC(C)C)cn2)n(Cc2ccc(Cl)cc2)c1=O [I-213]	–	427 nM
CC(C)Oc1ccc(Nc2ncc(NC(=O)C3CCOCC3)c(=O)n2Cc2ccc(Cl)cc2)cc1Cl [I-236]	–	6 nM
CC(C)Oc1ccc(Nc2ncc(Cc3ccccc3)c(=O)n2Cc2ccc(Cl)cc2)cc1Cl [I-022]	–	147 nM
CC(C)Oc1ccc(Nc2ncc(C(=O)NNC(=O)OC(C)(C)C)c(=O)n2Cc2ccc(Cl)cc2)cc1F [I-271]	–	29 nM
Cc1nc2ccc(Nc3nc(=O)c(C(=O)NC4COC4)cn3Cc3ccc(Cl)cc3)cc2s1 [I-308]	–	133 nM
CCNc1ccc(Nc2ccc(OC(C)C)cc2)c(Cc2ccc(Cl)cc2)c1 [I-071, 1-(4-chlorobenzyl)-3-ethylamino-6-(4-isopropoxyphenylamino)benzene]	–	502 nM
CC(C)Oc1ccc(Nc2ncc(N(C)C(=O)OC(C)(C)C)c(=O)n2Cc2ccc(Cl)cc2)cc1F [I-208]	–	50 nM
COC(=O)[C@@H](C)Cn1c(=O)cc(Nc2ccc(OC(C)C)cc2)n(Cc2ccc(Cl)cc2)c1=O [I-216]	–	105 nM
CC(C)Oc1ccc(Nc2nc(=O)c(NC=O)cn2Cc2ccc(Cl)cc2)cc1F [I-239]	–	515 nM
CC(C)Oc1ccc(Nc2ncc(NC(=O)c3ccc(=O)[nH]c3)c(=O)n2Cc2ccc(Cl)cc2)cc1F [I-276]	–	32 nM
COCCCNC(=O)c1cn(Cc2ccc(Cl)cc2)c(Nc2ccc3nc(C)sc3c2)nc1=O [I-300]	–	164 nM
CC(=O)OC(C)(C)C(=O)Nc1cnc(Nc2ccc(OC(C)C)c(F)c2)n(Cc2ccc(Cl)cc2)c1=O [I-267]	–	25 nM
Cc1cc(Nc2ncc(NC(=O)C3CCOCC3)c(=O)n2Cc2ccc(Cl)cc2)ccc1OC(C)C [I-237]	–	13 nM

SMILES	solubility at 16 h (Solubility test)	IC50 (human P2X3 receptor)
CC(C)Oc1ccc(Nc2cc(=O)n(C[C@H](C)C(=O)O)c(=O)n2Cc2ccc(Cl)cc2)nc1 [I-217]	–	453 nM
CCn1c(=O)cc(Nc2ccc(Oc3ccnc(C(=O)O)c3)cc2)n(Cc2ccc(Cl)cc2)c1=O [I-317]	–	3 nM
CC(C)Oc1ccc(Nc2ncc(C#N)c(=O)n2Cc2ccc(Cl)cc2)cc1F [I-259]	–	436 nM
CC(C)Oc1ccc(Nc2ncc(C(=O)NC3CCOCC3)c(=O)n2Cc2ccc(Cl)cc2)cc1F [I-242]	–	67 nM
CC(C)Oc1ccc(Nc2nc(=O)c(C(=O)NCCO)cn2Cc2ccc(Cl)cc2)cc1F [I-146, 1-(4-chlorobenzyl)-2-(3-fluoro-4-isopropoxyphenylamino)-5-[N-(2-hydroxyethyl)carbamoyl]pyrimidine-4(1H)-one]	–	383 nM
CC(C)Oc1ccc(Nc2nc(=O)c3cc(C(F)(F)F)ccc3n2Cc2ccc(Cl)cc2)cc1Cl [I-227, 1-(4-chlorobenzyl)-2-(3-chloro-4-isopropoxyphenylamine)-6-trifluoromethylquinazoline-4(3H)-one]	–	974 nM
CC(C)Oc1ccc(Nc2ncc(NC(N)=O)c(=O)n2Cc2ccc(Cl)cc2)cc1F [I-277]	–	49 nM
C=Cc1c(C)nc(Nc2ccc3nc(C)sc3c2)n(Cc2ccc(Cl)cc2)c1=O [I-350]	–	385 nM
Cc1nc2ccc(Nc3nc(=O)c(C(=O)NCCC#N)cn3Cc3ccc(Cl)cc3)cc2s1 [I-301]	–	123 nM
CCOC(=O)/C=C/c1cn(Cc2ccc(Cl)cc2)c(Nc2ccc(OC(C)C)c(Cl)c2)nc1=O [I-098]	–	233 nM
COCC(=O)Nc1cnc(Nc2ccc(OC(C)C)c(F)c2)n(Cc2ccc(Cl)cc2)c1=O [I-249]	–	35 nM
COC(=O)[C@@H](C)Cn1c(=O)cc(Nc2ccc(OC(C)C)c(Cl)c2)n(Cc2ccc(Cl)cc2)c1=O [I-095]	–	16 nM
Cc1nc2ccc(Nc3nc(C)c(Br)c(=O)n3Cc3ccc(Cl)cc3)cc2s1 [I-349]	–	280 nM
CC(C)(CN1C(=O)N(Cc2ccc(Cl)cc2)C(Nc2cccc(C(F)(F)F)c2)=CC1O)C(=O)O (stereo not shown) [I-113]	–	72 nM
COC(=O)C(C)(C)Cn1c(=O)cc(Nc2cccc(C(F)(F)F)c2)n(Cc2ccc(Cl)cc2)c1=O [I-107]	–	51 nM
CC(=O)OC(C)(C)C(=O)Nc1cnc(Nc2ccc3nc(C)sc3c2)n(Cc2ccc(Cl)cc2)c1=O [I-358]	–	16 nM
CC(C)Oc1ccc(Nc2ncc(NC(=O)C(C)C)c(=O)n2Cc2ccc(Cl)cc2)cc1F [I-247]	–	19 nM
O=C(Nc1cnc(Nc2ccc(Oc3cc[nH]c(=O)c3)cc2)n(Cc2ccc(Cl)cc2)c1=O)C1CCOCC1 [I-244]	–	2 nM
CC(C)Oc1ccc(Nc2ncc(NC(=O)c3cc[nH]c(=O)c3)c(=O)n2Cc2ccc(Cl)cc2)cc1F [I-275]	–	11 nM
COC(=O)[C@@H](C)NC(=O)c1cnc(Nc2ccc(OC(C)C)c(F)c2)n(Cc2ccc(Cl)cc2)c1=O [I-197]	–	98 nM
